In brackets after ≈: the same amount, converted by molar mass.

One data set deals with Adalia sp. The data set is described as follows: LR50; higher = less toxic. The conditions noted are these: acute; duration: 48 hours; mortality.
Another data set deals with Rattus norvegicus. Particulars: for NOAEL: clinical signs.
In a further data set the test system is Apis mellifera. The conditions noted are these: acute; dermal; mortality.
Another data set has as its system Bibionidae. Particulars: chronic/long-term; duration: 28 days; other.
A further data set relates to Daphnia magna. The conditions noted are these: chronic/long-term, duration: 21 days.

One may read the NOAEL as the highest tested level that showed no adverse finding. As to `CC(C)[C@H](C(=O)O[C@H](C#N)c1cccc(Oc2ccccc2)c1)c1ccc(Cl)cc1` [Esfenvalerate], in the data set with Adalia sp., the LR50 was determined as 0.291 g/ha. For the same molecule, the NOAEL in the data set on Rattus norvegicus (acute) and in the data set with Rattus norvegicus (chronic) was 1.75 mg/kg-day each time. Also, the LD50 with Rattus norvegicus (acute, oral, mortality) came to 88.5 mg/kg; with Apis mellifera, 0.06 µg/piece; in the data set with Colinus virginianus (acute, oral, mortality) it was 1310 mg/kg-day. Moreover, the NOEC stood at 18.7 mg/kg-day in the data set on Colinus virginianus (reproduction developmental); 0.001 µg/L in the data set on Oncorhynchus mykiss (chronic/long-term, duration: 21 days); 0.16 µg/L with Bibionidae; 1.1 mg/kg with Tagia sp. (chronic/long-term); 0.052 µg/L in the data set with Daphnia magna; 0.0038 µg/L with Daphnia magna (reproduction). The LC50 was found to be 0.1 ng/mL (≈ 0.238 nM) with Oncorhynchus mykiss (acute, duration: 96 hours, mortality) and 10.6 mg/kg with Tagia sp. (acute, mortality).

Source of the values: EPA's ToxValDB 9.5 (doi:10.2903/j.efsa.2014.3873).
